Reference: EP1714645A1, “Pharmaceutical composition containing bakuchiol for treating breast cancer in women” (Sinphar Pharmaceutical Co., Ltd., priority 2005, dated 2006)
≈ marks a conversion by molar mass, not a printed value.

Tests used:
female Wistar rats [1] = assay: Ovariectomized rat osteoporosis model, apparent bone density measurement of tibia (Archimedes principle); type: in vivo; settings: two months, mean value, OVX group 1.549, Sham 1.589, p < 0.05 vs OVX
Description: (§1) The purpose of this example is to show the potency of bakuchiol in treating osteoporosis, wherein ovary of a female rat is removed to stimulate osteoporosis caused by estrogen deficiency.
(§2) The female Wistar rats of 16 weeks old (unless specified in the other experiment description) were obtained from the stock reared by the Animal breeding center, National Scientific Council in Taipei. These rats were grouped by weights matched in order to distribute the physiological response variation from rats evenly into each group. These rats were grouping as follows: • Baseline group fed with no drug added food (n=8) • Sham operation group fed with no drug added food (Sham) (n=10) • Ovariectomy operation group fed with no drug added food (OVX) (n=8) • Ovariectomy operation group fed with Drug A (5 mg/kg) added food (OVX+A) (n=9) • Ovariectomy operation group fed with Drug B (15 mg/kg) added food (OVX+B) (n=9)
Ovariectomy (removal of ovaries) operation: Ovariectomy was induced using a protocol similar to that described by Wronski et al (Wronski et al, Endocrinology, 123(2), 681-86 (1988)). […]
The whole tibia and femur were stripped off attached muscles and ligaments after sacrifice. […] The weight of bone measured in the air was marked as W-air. […] The apparent bone density was calculated as [W-air/(W-air minus W-water)] […]

[2] = test system: five different human cancer cells (lung (A549), ovary (SK-OV-3), skin (SK-MEL-2), central nervous system (XF498), and large intestine (HCT)); settings: range over A549, SK-OV-3, SK-MEL-2, XF498, HCT; cited from earlier work
female Wistar rats [3] = assay: Ovariectomized rat osteoporosis model, bone histomorphometry of proximal tibia; type: in vivo; settings: two months, mean value, p < 0.001 vs OVX; for Bone volume % (BV/TV): proximal tibia head trabecular bone, OVX group 12.50%, Sham 29.50%; for Erosion surface (ESBS, %): proximal tibia, OVX group 5.8%, Sham 4.7%
Description: as §1, §2
Ovariectomy (removal of ovaries) operation: Ovariectomy was induced using a protocol similar to that described by Wronski et al (Wronski et al, Endocrinology, 123(2), 681-86 (1988)).
During the experiments, the rats were housed in hanging grid cages in groups of two at 21°C with a 12 hours dark cycle. Food (Rat-mouse diet III, adequate in 1 % of calcium content and 1.2 % of phosphate content, Purina, USA) was administered by paired feeding between the experimental and control groups. Pair-feeding was carried out by calculating the average amount of food intake in the Sham group. So give the same amount of food to the OVX , OVX+A (5 mg/kg), OVX+B (15 mg/kg) group animals the following day. These animals were fed with a period of two months except for the baseline group which were killed on the very day of doing ovariectomy or sham operation. Rats of OVX+A and OVX+B groups were fed with the usual food chuck but added certain amount of compound A and B in it respectively. Water was given ad libitum to all rats.
The test drug was weighted according to dose of 5 mg/kg and 15 mg/kg, and added into the ususal food chuck powder and mixed with 10% starch paste. After fully mixed, these chuck powder were made into mass manually and dried by air flow oven. The food with added drug to rats was performed by single blind method.
These labeling and bone histomorphometry assessment were done based on standard procedure in bone research (Lin et al, Calcif. Tissue Int., 67, 373-377 (2000)). Specimen were prestained with Villanueva bone stain, then […] and embedded in London resin. Undecalcified sections of 7 µm thick were cut using Jung-K microtome (Leica Ltd, USA) and treated with Villanueva stain for observation under light microscopy. Seven µm thick unstained sections were prepared for fluorescent microscopy and assessed with program Osteomeasure (3.0 version, Atlanta, USA). […]

T47D = assay: Cytotoxicity assay (CCK-8, net growth % vs control); type: cell-based; settings: Homo sapiens; T47D (estrogen receptor positive), 48 hours incubation; read-out: 50% inhibition of cell growth concentrations of test compounds (IC50)
Description: (§3) Materials: DMEM (medium), RPMI (medium), L-glutamine, penicillin, streptomycin and FBS (fetal bovine serum) were obtained from Gibco (NY, USA). Culture plasticware was purchased from Coming (MA, USA). […] All other chemicals used were of reagent grade and were purchased from Sigma or E. Merck (Germany).
(§4) Cell lines and cell cultures: The human breast cancer cell lines T47D and MDA-MB231 were obtained from American Type Culture Collection (ATCC). Of both cancer cells, T47D is estrogen receptor positive, and MDA-MB231 is estrogen receptor negative. Cells were cultured at 37°C in RPMI medium containing 10% charcoal-dextran stripped fetal bovine serum for T47D cells and in DMEM medium containing 10% charcoal-dextran stripped fetal bovine serum for MDA-MB231 cells with 5% CO2. The cell proliferation was determined by counting the viable cells with trypan blue exclusion.
(§5) Cytotoxicity assay: Dispense 198 µl of cell suspension (20,000 cells for T47D per well and 10,000 cell for MDA-MB231 per well) in a 96-well plate and pre-incubate the plate for 24 hours in an incubator at 37°C with humidified 5% CO2. […] After plate was incubated for 48 hours in the incubator, media were aspirated of and new media (100 µl) were added and incubated for 1 more hour. […] Measure the absorbance at 450 nm using a ELISA reader. […]

MDA-MB231 = assay: as above; type: cell-based; settings: Homo sapiens, MDA-MB-231; MDA-MB231 (estrogen receptor negative), 48 hours incubation; read-out: 50% inhibition of cell growth concentrations of test compounds (IC50)
Description: as §3, §4, §5

Structure (SMILES): C=C[C@@](C)(/C=C/c1ccc(O)cc1)CCC=C(C)C [Bakuchiol, bakuchiol]
- Bone apparent density (female Wistar rats [1]; OVX+A group (5 mg/kg) in food): 1.582 gm/cm^3
- Bone apparent density (female Wistar rats [1]; OVX+B group (15 mg/kg) in food): 1.587 gm/cm^3
- average inhibitory concentration (IC50) [2]: 10~15 µg/cc
- Bone volume % (BV/TV) (female Wistar rats [3]; OVX+A group (5 mg/kg) in food): 19.80%
- Erosion surface (ESBS, %) (female Wistar rats [3]; OVX+A group (5 mg/kg) in food): 5.0%
- Bone volume % (BV/TV) (female Wistar rats [3]; OVX+B group (15 mg/kg) in food): 20.11%
- Erosion surface (ESBS, %) (female Wistar rats [3]; OVX+B group (15 mg/kg) in food): 4.8%
- IC50 (T47D): 5 µg/mL (≈ 19.5 µM)
- IC50 (MDA-MB231): 0.62 µg/mL (≈ 2.42 µM)
